Source: PubChem BioAssay (NCI)
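Dose response: 5 concentrations. Exposure: 48 h. Format: 96-well plates. Endpoint: linear interpolation; highest concentration if not reached. GI50 = concentration required for 50% inhibition of growth. The concentration for full growth arrest is given as TGI.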

Columns and labels:
Test in all cases: NCI anticancer screen, dose series, 48 h
UACC-62 melanoma = system: UACC-62 melanoma
HCT-116 colon = system: HCT-116 colon
NCI-H460 lung = system: NCI-H460 lung
SK-MEL-28 melanoma = system: SK-MEL-28 melanoma
T-47D breast = system: T-47D breast
M14 melanoma = system: M14 melanoma
HT29 colon = system: HT29 colon
NCI/ADR-RES ovarian = system: NCI/ADR-RES ovarian
SW-620 colon = system: SW-620 colon
NCI-H522 lung = system: NCI-H522 lung
MDA-MB-435 = system: MDA-MB-435
U251 CNS = system: U251 CNS
COLO 205 colon = system: COLO 205 colon
CAKI-1 renal = system: CAKI-1 renal
OVCAR-8 ovarian = system: OVCAR-8 ovarian
BT-549 breast = system: BT-549 breast
RXF 393 renal = system: RXF 393 renal
MCF7 breast = system: MCF7 breast
UACC-257 melanoma = system: UACC-257 melanoma
SNB-75 CNS = system: SNB-75 CNS
SK-OV-3 ovarian = system: SK-OV-3 ovarian
SR leukemia = system: SR leukemia
HL-60(TB) leukemia = system: HL-60(TB) leukemia
KM12 colon = system: KM12 colon
SN12C renal = system: SN12C renal
CCRF-CEM leukemia = system: CCRF-CEM leukemia
A549 NSCLC = system: A549 NSCLC
TK-10 renal = system: TK-10 renal
RPMI-8226 leukemia = system: RPMI-8226 leukemia
K-562 leukemia = system: K-562 leukemia
HOP-92 NSCLC = system: HOP-92 NSCLC
SF-295 CNS = system: SF-295 CNS
SK-MEL-2 melanoma = system: SK-MEL-2 melanoma
IGROV1 ovarian = system: IGROV1 ovarian
MOLT-4 leukemia = system: MOLT-4 leukemia
SF-539 CNS = system: SF-539 CNS
786-0 renal = system: 786-0 renal
ACHN renal = system: ACHN renal
HOP-62 NSCLC = system: HOP-62 NSCLC
UO-31 renal = system: UO-31 renal
NCI-H226 lung = system: NCI-H226 lung
PC-3 prostate = system: PC-3 prostate
MDA-MB-231 breast = system: MDA-MB-231 breast
NCI-H23 lung = system: NCI-H23 lung
DU-145 prostate = system: DU-145 prostate
HCT-15 colon = system: HCT-15 colon
HS 578T breast = system: HS 578T breast
OVCAR-5 ovarian = system: OVCAR-5 ovarian
HCC-2998 colon = system: HCC-2998 colon
SF-268 CNS = system: SF-268 CNS
A498 renal = system: A498 renal
EKVX NSCLC = system: EKVX NSCLC
SNB-19 CNS = system: SNB-19 CNS
MALME-3M melanoma = system: MALME-3M melanoma
OVCAR-4 ovarian = system: OVCAR-4 ovarian
SK-MEL-5 melanoma = system: SK-MEL-5 melanoma

## O=C(NCCCNc1cc(-c2cn(-c3ccccc3)nc2-c2cccc(O)c2)ccn1)Nc1cccc(C(F)(F)F)c1
UACC-62 melanoma
  GI50: 4.41 µM
  TGI: 8.84 µM
HCT-116 colon
  GI50: 1.97 µM
  TGI: 6.33 µM
NCI-H460 lung
  GI50: 3.48 µM
  TGI: 8.89 µM
SK-MEL-28 melanoma
  GI50: 3.48 µM
  TGI: 7.51 µM
T-47D breast
  GI50: 3.42 µM
  TGI: 16.7 µM
M14 melanoma
  GI50: 2.18 µM
  TGI: 6.99 µM
HT29 colon
  GI50: 1.51 µM
  TGI: 6.19 µM
NCI/ADR-RES ovarian
  GI50: 4.9 µM
  TGI: 12.8 µM
SW-620 colon
  GI50: 3.85 µM
  TGI: 8.31 µM
NCI-H522 lung
  GI50: 5.12 µM
  TGI: 11 µM
MDA-MB-435
  GI50: 3.41 µM
  TGI: 7.57 µM
U251 CNS
  GI50: 2.57 µM
  TGI: 7.45 µM
COLO 205 colon
  GI50: 2.97 µM
  TGI: 8.72 µM
CAKI-1 renal
  GI50: 1.9 µM
  TGI: 12.3 µM
OVCAR-8 ovarian
  GI50: 3.88 µM
  TGI: 10 µM
BT-549 breast
  GI50: 3.26 µM
  TGI: 7.63 µM
RXF 393 renal
  GI50: 1.08 µM
  TGI: 4.96 µM
MCF7 breast
  GI50: 2.73 µM
  TGI: 9.39 µM
UACC-257 melanoma
  GI50: 4.8 µM
  TGI: 10.1 µM
SNB-75 CNS
  GI50: 0.743 µM
  TGI: 4.1 µM
SK-OV-3 ovarian
  GI50: 4.49 µM
  TGI: 10.1 µM
SR leukemia
  GI50: 1.65 µM
  TGI: 12.8 µM
HL-60(TB) leukemia
  GI50: 3.42 µM
  TGI: 14.5 µM
KM12 colon
  GI50: 2.63 µM
  TGI: 7.39 µM
SN12C renal
  GI50: 3.65 µM
  TGI: 7.91 µM
CCRF-CEM leukemia
  GI50: 1.71 µM
  TGI: 33.3 µM
A549 NSCLC
  GI50: 3.35 µM
  TGI: 11.2 µM
TK-10 renal
  GI50: 5.75 µM
  TGI: 13.2 µM
RPMI-8226 leukemia
  GI50: 0.727 µM
  TGI: 6.12 µM
K-562 leukemia
  GI50: 1.26 µM
  TGI: 33.3 µM
HOP-92 NSCLC
  GI50: 1.25 µM
  TGI: 6.01 µM
SF-295 CNS
  GI50: 1.76 µM
  TGI: 6.42 µM
SK-MEL-2 melanoma
  GI50: 5.29 µM
  TGI: 11.7 µM
IGROV1 ovarian
  GI50: 2.83 µM
  TGI: 7.89 µM
MOLT-4 leukemia
  GI50: 1.67 µM
  TGI: 15 µM
SF-539 CNS
  GI50: 2.78 µM
  TGI: 7.18 µM
786-0 renal
  GI50: 1.07 µM
  TGI: 3.71 µM
ACHN renal
  GI50: 5.23 µM
  TGI: 15.5 µM
HOP-62 NSCLC
  GI50: 4.09 µM
  TGI: 9.59 µM
UO-31 renal
  GI50: 2.1 µM
  TGI: 10.8 µM
NCI-H226 lung
  GI50: 4.88 µM
  TGI: 11.5 µM
PC-3 prostate
  GI50: 1.79 µM
  TGI: 11.2 µM
MDA-MB-231 breast
  GI50: 2.85 µM
  TGI: 7.76 µM
NCI-H23 lung
  GI50: 4.34 µM
  TGI: 9.34 µM
DU-145 prostate
  GI50: 4.8 µM
  TGI: 11.9 µM
HCT-15 colon
  GI50: 1.06 µM
  TGI: 4.32 µM
HS 578T breast
  GI50: 1.34 µM
  TGI: 7.74 µM
OVCAR-5 ovarian
  GI50: 3.96 µM
  TGI: 9.71 µM
HCC-2998 colon
  GI50: 1.26 µM
  TGI: 4.34 µM
SF-268 CNS
  GI50: 3.26 µM
  TGI: 9.69 µM
A498 renal
  GI50: 3.17 µM
  TGI: 7.18 µM
EKVX NSCLC
  GI50: 3.5 µM
  TGI: 8.45 µM
SNB-19 CNS
  GI50: 3.99 µM
  TGI: 8.97 µM
MALME-3M melanoma
  GI50: 1.54 µM
  TGI: 6.08 µM
OVCAR-4 ovarian
  GI50: 2.13 µM
  TGI: 7.75 µM
SK-MEL-5 melanoma
  GI50: 3.25 µM
  TGI: 7.16 µM
